We go through 20 molecules from ChEMBL document CHEMBL5335794, “Discovery of novel multifunctional ligands targeting GABA transporters, butyrylcholinesterase, β-secretase, and amyloid β aggregation as potential treatment of Alzheimer's disease” (Eur J Med Chem, 2023).

Assay [1] addresses T1, Beta-secretase 1 (Homo sapiens, UniProt P56817).
In assay [2] the target is Acetylcholinesterase (Electrophorus electricus) (UniProt O42275). Put plainly: Inhibition of electric eel AChE using acetylthiocholine iodide as substrate at 10 uM preincubated for 5 mins followed by substrate addition and measured after 5 mins by DTNB reagent based Ellman's method relative to control. The conditions noted are these: time 10.0 min.
Assay [3] addresses Cholinesterase (Equus caballus, UniProt P81908).
Description: Inhibition of equine serum BuChE using butyrylthiocholine iodide as substrate preincubated for 5 mins followed by substrate addition and measured after 5 mins by DTNB reagent based Ellman's method
Assay [4] deals with Sodium- and chloride-dependent GABA transporter 1 (Mus musculus) (UniProt P31648). Put plainly: Inhibition of NO 711 marker binding to mouse GAT1 assessed as residual activity at 100 uM by LC-ESI-MS/MS based competitive MS binding assay relative to control.
In assay [5] the target is T2, Sodium- and chloride-dependent GABA transporter 1 (Mus musculus, UniProt P31648). Put plainly: Inhibition of mouse GAT1 transfected in HEK293 cells assessed as reduction in [3H]-GABA uptake preincubated for 25 mins followed by [3H]-GABA addition and measured after 4 mins by liquid scintillation counting analysis. The format is cell-based. The conditions noted are these: read-out: pIC50 (converted).

Assay [6] has as its target T1, Beta-secretase 1. The conditions noted are these: dose 50.0 µM, time 60.0 min.
Assay [7] has as its target T3, GABA transporter 4 (Mus musculus, UniProt P31650).
T3 sequence (P31650 whole entry): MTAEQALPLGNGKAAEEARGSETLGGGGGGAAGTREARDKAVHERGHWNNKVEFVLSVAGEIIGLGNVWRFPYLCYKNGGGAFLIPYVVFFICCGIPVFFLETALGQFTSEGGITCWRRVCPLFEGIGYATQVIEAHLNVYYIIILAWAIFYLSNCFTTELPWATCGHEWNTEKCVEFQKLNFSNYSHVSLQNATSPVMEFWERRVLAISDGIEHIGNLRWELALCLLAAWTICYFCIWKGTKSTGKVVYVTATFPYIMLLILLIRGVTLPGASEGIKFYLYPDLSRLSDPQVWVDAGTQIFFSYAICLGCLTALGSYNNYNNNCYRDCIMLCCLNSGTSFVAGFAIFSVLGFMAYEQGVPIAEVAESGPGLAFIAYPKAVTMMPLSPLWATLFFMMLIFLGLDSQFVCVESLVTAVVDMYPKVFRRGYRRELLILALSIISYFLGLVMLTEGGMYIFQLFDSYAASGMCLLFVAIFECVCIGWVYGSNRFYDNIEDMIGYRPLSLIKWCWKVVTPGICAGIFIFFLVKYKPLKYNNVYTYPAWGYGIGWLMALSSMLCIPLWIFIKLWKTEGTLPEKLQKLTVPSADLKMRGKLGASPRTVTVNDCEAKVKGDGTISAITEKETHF
Put plainly: Inhibition of mouse GAT4 transfected in HEK293 cells assessed as reduction in [3H]-GABA uptake preincubated for 25 mins followed by [3H]-GABA addition and measured after 4 mins by liquid scintillation counting analysis. Type of assay: cell-based. The conditions noted are these: read-out: pIC50 (converted).

Assay [8] is described as follows: Inhibition of mouse GAT3 transfected in HEK293 cells assessed as reduction in [3H]-GABA uptake preincubated for 25 mins followed by [3H]-GABA addition and measured after 4 mins by liquid scintillation counting analysis. The format is cell-based. The following applies: for IC50: HEK293, read-out: pIC50 (converted).
The target in assay [9] is Cholinesterase (Equus caballus) (UniProt P81908). Put plainly: Inhibition of equine serum BuChE using butyrylthiocholine iodide as substrate at 10 uM preincubated for 5 mins followed by substrate addition and measured after 5 mins by DTNB reagent based Ellman's method relative to control. The following applies: time 10.0 min.
For assay [10], the target named is T4, GABA transporter 2 (Mus musculus, UniProt P31651).
T4 sequence (P31651 whole entry): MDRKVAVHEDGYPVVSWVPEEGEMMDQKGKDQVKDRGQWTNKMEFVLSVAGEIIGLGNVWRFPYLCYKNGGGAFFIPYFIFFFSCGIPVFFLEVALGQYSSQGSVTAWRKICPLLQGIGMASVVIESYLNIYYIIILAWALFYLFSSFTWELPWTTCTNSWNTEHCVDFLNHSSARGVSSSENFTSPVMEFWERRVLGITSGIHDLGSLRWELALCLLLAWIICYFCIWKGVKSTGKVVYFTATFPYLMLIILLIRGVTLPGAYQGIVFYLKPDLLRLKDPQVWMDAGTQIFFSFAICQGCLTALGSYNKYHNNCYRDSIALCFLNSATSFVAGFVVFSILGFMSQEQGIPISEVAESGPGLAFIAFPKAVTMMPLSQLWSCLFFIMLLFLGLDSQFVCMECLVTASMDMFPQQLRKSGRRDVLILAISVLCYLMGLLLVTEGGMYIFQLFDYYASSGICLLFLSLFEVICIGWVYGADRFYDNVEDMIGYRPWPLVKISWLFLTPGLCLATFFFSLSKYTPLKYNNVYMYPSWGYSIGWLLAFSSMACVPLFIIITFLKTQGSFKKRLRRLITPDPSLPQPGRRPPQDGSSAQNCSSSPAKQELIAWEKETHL
Put plainly: Inhibition of mouse GAT2 transfected in HEK293 cells assessed as reduction in [3H]-GABA uptake preincubated for 25 mins followed by [3H]-GABA addition and measured after 10 mins by liquid scintillation counting analysis. The format is cell-based. The conditions noted are these: read-out: pIC50 (converted).

In assay [11] the target is T2, Sodium- and chloride-dependent GABA transporter 1. Put plainly: Inhibition of NO 711 marker binding to mouse GAT1 by LC-ESI-MS/MS based competitive MS binding assay.
Assay [12] addresses Amyloid-beta precursor protein (Homo sapiens) (UniProt P05067). Put plainly: Inhibition of amyloid beta42 (unknown origin) aggregation expressed in Escherichia coli BL21 (DE3) at 10 uM measured every 5 mins by ThT fluorescence based assay relative to control.
Assay [13] shares this target. Put plainly: Inhibition of amyloid beta40 (unknown origin) aggregation at 10 uM measured every 5 mins by ThT fluorescence based assay relative to control.

Sequence of Cholinesterase (P81908 whole entry): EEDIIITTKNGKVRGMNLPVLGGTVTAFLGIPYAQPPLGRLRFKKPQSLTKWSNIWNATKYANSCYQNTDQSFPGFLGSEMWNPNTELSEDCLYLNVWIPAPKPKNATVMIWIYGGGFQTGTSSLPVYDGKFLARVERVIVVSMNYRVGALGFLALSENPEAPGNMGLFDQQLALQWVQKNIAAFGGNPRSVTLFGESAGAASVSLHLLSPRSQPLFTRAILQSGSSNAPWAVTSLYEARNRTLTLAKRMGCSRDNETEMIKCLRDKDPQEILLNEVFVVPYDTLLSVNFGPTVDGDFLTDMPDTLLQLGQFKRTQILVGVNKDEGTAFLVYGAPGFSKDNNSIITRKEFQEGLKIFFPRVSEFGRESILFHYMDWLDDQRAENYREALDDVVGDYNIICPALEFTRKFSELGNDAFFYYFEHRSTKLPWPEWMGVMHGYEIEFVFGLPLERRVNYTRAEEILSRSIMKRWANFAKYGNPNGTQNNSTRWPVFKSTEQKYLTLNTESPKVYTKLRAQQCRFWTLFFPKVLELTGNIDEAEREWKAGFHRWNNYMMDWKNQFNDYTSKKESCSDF
T1 sequence (P56817 whole entry): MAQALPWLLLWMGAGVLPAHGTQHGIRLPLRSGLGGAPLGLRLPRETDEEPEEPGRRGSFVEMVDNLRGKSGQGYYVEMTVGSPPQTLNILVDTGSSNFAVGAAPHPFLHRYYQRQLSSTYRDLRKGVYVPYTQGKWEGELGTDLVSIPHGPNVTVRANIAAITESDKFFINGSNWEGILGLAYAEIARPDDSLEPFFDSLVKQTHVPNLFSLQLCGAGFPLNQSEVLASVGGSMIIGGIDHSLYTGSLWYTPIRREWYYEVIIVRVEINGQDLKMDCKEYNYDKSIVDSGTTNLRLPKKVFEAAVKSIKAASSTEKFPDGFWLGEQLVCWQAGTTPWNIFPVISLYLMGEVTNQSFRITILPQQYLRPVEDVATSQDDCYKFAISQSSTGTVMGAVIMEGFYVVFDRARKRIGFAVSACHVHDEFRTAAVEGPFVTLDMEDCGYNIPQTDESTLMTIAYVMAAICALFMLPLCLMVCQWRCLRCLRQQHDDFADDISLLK
Sequence of Amyloid-beta precursor protein (Homo sapiens) (P05067 whole entry): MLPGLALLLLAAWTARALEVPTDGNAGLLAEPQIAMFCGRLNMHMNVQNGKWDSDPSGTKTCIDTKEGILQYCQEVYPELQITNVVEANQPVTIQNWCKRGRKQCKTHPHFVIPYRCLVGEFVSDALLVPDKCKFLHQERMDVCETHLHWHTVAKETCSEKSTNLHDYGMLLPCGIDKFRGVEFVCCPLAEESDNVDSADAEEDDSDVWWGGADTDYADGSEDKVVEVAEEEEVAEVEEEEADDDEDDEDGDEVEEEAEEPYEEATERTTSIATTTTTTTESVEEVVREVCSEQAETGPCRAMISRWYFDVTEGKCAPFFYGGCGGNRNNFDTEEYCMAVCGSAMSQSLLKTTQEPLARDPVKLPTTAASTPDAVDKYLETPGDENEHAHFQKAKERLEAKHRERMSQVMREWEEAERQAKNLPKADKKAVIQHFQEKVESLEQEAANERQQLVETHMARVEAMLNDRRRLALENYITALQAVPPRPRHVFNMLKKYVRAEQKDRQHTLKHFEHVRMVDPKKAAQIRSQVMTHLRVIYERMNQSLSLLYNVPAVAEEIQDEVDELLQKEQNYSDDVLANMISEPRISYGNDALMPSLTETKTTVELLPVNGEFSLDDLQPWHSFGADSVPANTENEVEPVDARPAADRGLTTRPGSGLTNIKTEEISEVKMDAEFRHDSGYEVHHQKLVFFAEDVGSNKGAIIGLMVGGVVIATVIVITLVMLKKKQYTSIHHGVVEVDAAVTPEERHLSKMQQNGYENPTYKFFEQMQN
Sequence of Acetylcholinesterase (Electrophorus electricus) (O42275 24-633 limits assumed): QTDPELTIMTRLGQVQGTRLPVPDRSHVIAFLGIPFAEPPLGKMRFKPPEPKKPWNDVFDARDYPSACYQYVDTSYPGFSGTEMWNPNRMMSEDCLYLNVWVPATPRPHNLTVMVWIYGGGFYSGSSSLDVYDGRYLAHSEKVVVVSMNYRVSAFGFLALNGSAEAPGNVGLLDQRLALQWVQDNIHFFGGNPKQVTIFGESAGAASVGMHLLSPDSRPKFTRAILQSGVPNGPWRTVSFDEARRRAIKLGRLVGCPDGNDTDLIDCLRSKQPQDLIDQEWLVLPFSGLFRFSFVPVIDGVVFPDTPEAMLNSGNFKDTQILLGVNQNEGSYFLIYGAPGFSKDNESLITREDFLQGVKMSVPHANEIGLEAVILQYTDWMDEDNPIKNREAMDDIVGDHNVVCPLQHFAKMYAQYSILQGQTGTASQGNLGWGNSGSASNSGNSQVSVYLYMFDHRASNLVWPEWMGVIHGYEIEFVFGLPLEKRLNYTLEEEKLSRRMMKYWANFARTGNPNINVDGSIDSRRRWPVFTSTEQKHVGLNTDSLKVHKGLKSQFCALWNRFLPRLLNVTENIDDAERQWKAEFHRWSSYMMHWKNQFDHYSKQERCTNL
Sequence of Cholinesterase (Equus caballus) (P81908 whole entry): as the sequence (P81908 whole entry) above

With `CN(CCC=C1c2ccccc2CCc2ccccc21)C(CCN)C(=O)NCc1ccc(F)cc1` (stereo not drawn), the IC50 in assay [1] is 4.88 µM; in [3] it was 1.21 µM. In addition, in [2], the inhibition was 21%.
For the molecule `CN(CCC=C1c2ccccc2CCc2ccccc21)C(CCN)C(=O)NCc1ccc(Cl)cc1` (stereo not drawn), the IC50 in [1] was 29 µM; in assay [3] it was 2.98 µM. In [2], this molecule yielded an inhibition of 33%.
Taken in the same sequence, the figures for `CN(CCC=C1c2ccccc2CCc2ccccc21)C(CCN)C(=O)NCc1ccccc1Cl` (stereo not drawn) were 5.13 µM, 1.23 µM and 28%.
Consider `CC(=O)NCCC(C(=O)NCc1ccccc1)N(C)CCOCCN1c2ccccc2Sc2ccccc21` (stereo not drawn), for which, in assay [4], the Activity amounted to 82%. For the same molecule, the IC50 in assay [5] is 38 µM; in [7], 25.1 µM; in [8], 11.7 µM; in [10], 19.1 µM. The inhibition was 30% in [6], under 10% in [2] and 58% in assay [9].
Molecule `CC(O)CC(C(=O)NCc1ccccc1)N(C)CC/C=C/c1ccccc1-c1ccccc1` (racemic; form 2) gave a Ki in assay [11] of 24.5 µM. Moreover, the IC50 in [5] is 44.7 µM; in assay [7], 41.7 µM; in assay [3] it was 3.71 µM; in assay [10] it was 15.1 µM. For the same molecule, the pIC50 in assay [8] (hek293) amounted to 4.87.
For `CN(CCC=C1c2ccccc2-c2ccccc21)C(CCO)C(=O)NCc1ccccc1` (stereo not drawn), the IC50 was 19.5 µM in assay [1] and 0.978 µM in [3]. The inhibition is 15.8% in assay [12], under 10% in assay [2] and 58.7% in assay [13].
As for `CC(=O)NCCC(C(=O)NCc1ccc(F)cc1)N(C)CCOCCN1c2ccccc2Sc2ccccc21` (stereo not drawn), the Activity in [4] was 85%. Moreover, the IC50 in assay [5] was 22.9 µM; in [7], 18.2 µM; in assay [8], 10.7 µM; in [3], 8.25 µM; in assay [10], 24.5 µM. Further, the inhibition in [6] is 45%; in [2], under 10%.
As for `CN(CCOCCN1c2ccccc2Sc2ccccc21)C(CCO)C(=O)NCc1ccccc1Cl` (stereo not drawn), in assay [4], the Activity amounted to 100%. In addition, the IC50 in [5] is 44.7 µM; in [7], 29.5 µM; in [8] it was 26.3 µM; in [3] it was 3.55 µM; in assay [10] it was 31.6 µM. In addition, the values for the inhibition in assay [6] and in [2] were 35% and under 10%, respectively.
In the case of `CN(CCOCCN1c2ccccc2Sc2ccccc21)C(CCO)C(=O)NCc1ccc(F)cc1` (stereo not drawn), the Activity in [4] is 84%. The IC50 in assay [5] is 26.9 µM; in [7], 13.2 µM; in assay [8], 11 µM; in assay [3], 4.54 µM; in [10], 11.5 µM. Besides, the inhibition in [6] was 42%; in assay [2], under 10%.
Consider `CC(=O)NCCC(C(=O)NCc1ccc(Cl)cc1)N(C)CCOCCN1c2ccccc2Sc2ccccc21` (stereo not drawn), for which the Activity in assay [4] came to 91%. For the same molecule, the IC50 in assay [5] was 19.1 µM; in assay [7], 12.3 µM; in assay [8] it was 8.91 µM; in assay [3] it was 4.7 µM; in assay [10], 9.55 µM. For the same molecule, the inhibition in assay [6] is 41%; in assay [2], under 10%.
Turning to `CN(CC/C=C/c1ccccc1-c1ccccc1)C(CO)C(=O)NCc1ccccc1Cl` (stereo not drawn), in assay [4], the Activity stood at 75%. Also, the IC50 in assay [5] is 16.2 µM; in [7] it was 15.5 µM; in assay [8] it was 17 µM; in [3], 2.27 µM; in [10], 11 µM. In addition, the inhibition in assay [6] was 51%; in [2], under 10%.
`CN(CCOCCN1c2ccccc2Sc2ccccc21)C(CCO)C(=O)NCc1ccccc1` (stereo not drawn): in [4], the Activity was found to be 93%. In addition, the IC50 was 35.5 µM in assay [5]; 21.4 µM in assay [7]; 8.51 µM in assay [8]; 4.34 µM in assay [3]; 12.9 µM in assay [10]. In addition, the figures for the inhibition in [6] and in assay [2] were 48% and under 10%, respectively.
Turning to `Cc1ccc(CNC(=O)C(CCN)N(C)CCOCCN2c3ccccc3Sc3ccccc32)cc1` (stereo not drawn), in [11], affinity was put at a Ki of 40.7 µM. Moreover, the IC50 is 11 µM in assay [5]; 11.5 µM in assay [7]; 7.76 µM in assay [8]; 3.63 µM in [3]; 7.76 µM in assay [10]. In addition, the inhibition is 47% in assay [6] and under 10% in assay [2].
Take `CN(CCOCCn1c2ccccc2c2ccccc21)C(CCN)C(=O)NCc1ccc(F)cc1` (stereo not drawn): the Activity in assay [4] was 82%. The inhibition is 30.9% in assay [12], 78% in assay [6], under 10% in assay [2] and 95.3% in assay [13]. Also, the IC50 in assay [5] is 33.9 µM; in assay [7] it was 18.2 µM; in assay [8] it was 17.4 µM; in assay [3], 0.345 µM; in [10], 20 µM.
`CN(CCC=C1c2ccccc2CCc2ccccc21)C(CCN)C(=O)NCc1ccccc1` (stereo not drawn): the figures for the IC50 in [1] and in assay [3] were 6.68 µM and 1.47 µM, respectively. This molecule also came in with an inhibition in assay [2] of 15%.
For `O=C(NCCCCCCCCNc1c2c(nc3cc(Cl)ccc13)CCCC2)c1ccc2nc(-c3ccc(Cl)cc3)c3c(c2c1)NCCC3`, the values for the inhibition in assay [12] and in assay [13] were 72.1% and 80.8%, respectively.
For the molecule `CN(CCC=C1c2ccccc2-c2ccccc21)C(CCO)C(=O)NCc1ccc(F)cc1` (stereo not drawn), the inhibition in [12] was 21.5%; in assay [6] it was 66%; in assay [2], under 10%; in [13], 77.1%. For the same molecule, in assay [3], the IC50 was found to be 0.978 µM.
Molecule `CN(CCC=C1c2ccccc2-c2ccccc21)C(CCO)C(=O)NCc1ccc(Cl)cc1` (stereo not drawn) gave an IC50 in [1] of 17.3 µM. In addition, the values for the inhibition in assay [2] and in assay [9] were under 10% and 46%, respectively.
For the molecule `Cc1ccc(CNC(=O)C(CCN)N(C)CCC=C2c3ccccc3CCc3ccccc32)cc1` (stereo not drawn), the IC50 in assay [1] worked out at 4.03 µM; in assay [3] it was 2.35 µM. The molecule further registered an inhibition in [2] of 15%.
With `CC(=O)NCCC(C(=O)NCc1ccccc1Cl)N(C)CCOCCN1c2ccccc2Sc2ccccc21` (stereo not drawn), the Activity in [4] stood at 86%. Moreover, the IC50 in assay [5] was 14.1 µM; in assay [7] it was 10.2 µM; in [8] it was 10.2 µM; in assay [3], 2.79 µM; in assay [10] it was 20.4 µM. In addition, the inhibition was 35% in assay [6] and under 10% in [2].
